Measurements published in paper PMC9863987, “Identification of Aryl Polyamines Derivatives as Anti-Trypanosoma cruzi Agents Targeting Iron Superoxide Dismutase” (Pharmaceutics, 2022).

Tests used:
[1] = tested on: T. cruzi Tulahuen strain amastigotes; assay: Screening against intracellular amastigotes in Vero cells, Tulahuen strain (Giemsa counting); type: cell-based, Trypanosoma cruzi; settings: Trypanosoma cruzi, TULAHUEN; amastigotes in Vero cells; 72 h; mean of three ± SD
Procedure: (§1) TINF/CH/1956/Tulahuen, DTU VI [26]—were grown at 28 °C in Gibco® RPMI 1640 Medium supplemented as previously reported, and used for in vitro screening. Trypanocidal activity against amastigotes was tested as previously reported. In brief, bloodstream trypomastigotes (BTs), obtained by cardiac puncture from infected BALB/c mice, were used to infect 1 × 10^4 Vero cells·well^−1 in 24-well plates with rounded coverslips at a multiplicity of infection (MOI) ratio of 10:1. After 24 h of infection, non-internalized trypomastigotes were washed and the infected cells were treated by adding the compounds in serial dilutions from 50 to 0.5 µM in […] for 72 h. BZN and untreated growth controls were also included in triplicate. Later, the number of amastigotes and infected cells were determined in Giemsa stained preparations by analysing 500 host cells randomly distributed in microscopic fields. The trypanocidal activity was expressed as the IC50 using GraphPad Prism 6 software (version 6.07).

[2] = Clinical analysis of heart, kidney and liver markers in serum of treated mice; type: in vivo, BALB/c mice; settings: n = 3
Procedure: (§2) Infection was carried out by intraperitoneal inoculation of 5 × 10^5 BTs of T. cruzi Arequipa strain per mouse in 0.2 mL PBS [26]. The infection was monitored and on the 10th day post-infection (dpi), when BTs were visible in the bloodstream, the infection was confirmed.
(§3) Mice were divided into four groups (n = 3 per group): 0, negative control group (uninfected and untreated mice); I, positive control group (infected and untreated mice); II, BZN group (mice infected and treated with BZN); III, 15 group (mice infected and treated with 15).
(§4) The treatment for mice treated in the acute and chronic CD began when the infection was confirmed (10th dpi) and was stablished that the animals had entered the chronic CD (75th dpi), respectively (Scheme 1). Compound 15 and BZN were orally administered for 5 consecutive days at a dose of 20 mg·Kg^−1·day^−1.
Blood samples were collected in several dpi (Scheme 1) and processed according the method previously reported to obtain serum. Serum samples were then aliquoted to ELISA test and clinical analysis.
Heart, kidney and liver markers were measured from blood in several dpi (Scheme 1) with Cromakit® as previously reported. Mean and standard deviations were calculated using the levels measured for different populations of sera (n = 15, n = 3), and the confidence interval were also calculated based on a confidence level of 95% (100 × (1 − α) = 100 × (1 − 0.05)).

[3] = tested on: T. cruzi Arequipa strain; assay: Nested amastigotes detection by PCR in nine target organs/tissues of infected BALB/c mice; type: in vivo, Trypanosoma cruzi; settings: oral 20 mg/Kg/day for 5 days
Procedure: as §2, §3, §4
After CP-induced immunosuppression, the mice were euthanised using CO2 by exsanguination via cardiac puncture, and blood was collected. Then, 9 target organs/tissues were harvested: adipose, bone marrow, brain, oesophagus, heart, lung, muscle, spleen, and stomach. These organs/tissues were perfused with pre-warmed PBS to avoid contamination with BTs, and stored at −80 °C. In addition, spleens were weighed to assess splenomegaly.
DNA extraction of the target organs/tissues was performed using Wizard® Genomic DNA Purification Kit. DNA was subjected to amplification by PCR based on the sequence of the T. cruzi splice leader (SL) intergenic region using two published primers (TC and TC1) that allow the amplification of a 300 base pairs fragment in different biological samples. […]

[4] = tested on: T. cruzi Arequipa strain amastigotes; assay: Screening against intracellular amastigotes in Vero cells, Arequipa strain (Giemsa counting); type: cell-based, Trypanosoma cruzi
Procedure: as §1

[5] = type: in vivo, BALB/c mice; settings: oral 20 mg/Kg/day for 5 days; acute and chronic infections
Procedure: (§5) All animal work (Scheme 1) and maintenance was performed under RD53/2013 and approved by the Ethics Committee on Animal Experimentation (CEEA) of the University of Granada, Spain. Female BALB/c mice (aged 10–12 weeks and 20–22 g) were used in the subsequent in vivo assays.
as §2, §3, §4

[6] = tested on: T. cruzi Arequipa strain; assay: Monitoring of acute parasitaemia by counting in infected BALB/c mice; type: in vivo, Trypanosoma cruzi; settings: acute infection
Procedure: as §5, §2, §3, §4
[…]. The fresh blood microscopic examination was performed from the 7th day until the day when parasitaemia was not detected (Scheme 1).

[7] = tested on: T. cruzi Arequipa strain trypomastigotes; assay: Screening against bloodstream trypomastigotes, Arequipa strain (resazurin); type: cell-based, Trypanosoma cruzi; settings: Trypanosoma cruzi; trypomastigotes; 24 h + 4 h resazurin; mean of three ± SD
[8] = tested on: T. cruzi SN3 strain amastigotes; assay: Screening against intracellular amastigotes in Vero cells, SN3 strain (Giemsa counting); type: cell-based, Trypanosoma cruzi; settings: Trypanosoma cruzi; amastigotes in Vero cells; 72 h; mean of three ± SD
Procedure: as §1

[9] = tested on: epimastigotes of T. cruzi Arequipa strain; assay: Mitochondrial membrane potential by flow cytometry (rhodamine 123); type: cell-based, Trypanosoma cruzi; settings: compounds at IC25 concentrations, 72 h; KCN 10 mM, 40 min; mean of three ± SD
[10] = tested on: T. cruzi Arequipa strain; assay: Infection reactivation by cyclophosphamide immunosuppression in infected BALB/c mice; type: in vivo, Trypanosoma cruzi; settings: oral 20 mg/Kg/day for 5 days, related to control group
[11] = tested on: T. cruzi Tulahuen strain epimastigotes; assay: Screening against extracellular epimastigotes, Tulahuen strain (resazurin); type: cell-based, Trypanosoma cruzi; settings: Trypanosoma cruzi, TULAHUEN; epimastigotes; 48 h treatment + 24 h resazurin; mean of three ± SD; read-out: Activity IC50 T. cruzi Tulahuen Strain E
Procedure: Three different T. cruzi […] strains—MHOM/Pe/2011/Arequipa, discrete typing unit (DTU) V [26]; IRHOD/CO/2008/SN3, DTU I [27]; TINF/CH/1956/Tulahuen, DTU VI [26]—were grown at 28 °C in Gibco® RPMI 1640 Medium supplemented as previously reported, and used for in vitro screening.
Trypanocidal activity against epimastigotes was tested as previously reported. In brief, 5 × 10^5 mL^−1 epimastigotes culture medium were treated by adding the compounds in serial dilutions from 100 to 0.2 µM in 96-well plates (200 µL·well^−1) for 48 h. BZN and untreated growth control were also included in triplicate. Later, 20 μL of resazurin sodium salt (Sigma-Aldrich, St. Louis, MO, USA) was added, and the plates were incubated for another 24 h. Finally, the absorbance of the wells was measured at 570/600 nm and related to the control. The trypanocidal activity was expressed as the IC50 (inhibitory concentration 50) value using GraphPad Prism 6 software.

[12] = tested on: T. cruzi Tulahuen strain trypomastigotes; assay: Screening against bloodstream trypomastigotes, Tulahuen strain (resazurin); type: cell-based, Trypanosoma cruzi; settings: Trypanosoma cruzi, TULAHUEN; trypomastigotes; 24 h + 4 h resazurin; mean of three ± SD
[13] = treatment in acute phase, 16th dpi (2 days after treatment)
[14] = treatment in acute phase, necropsy day
[15] = treatment in chronic phase, 81th dpi (2 days after treatment)
[16] = treatment in chronic phase, necropsy day
[17] = treatment in the acute infection

O=C(Cn1ccnc1[N+](=O)[O-])NCc1ccccc1 [BZN, benznidazole, reference compound]
IC50 [1]: 10 ± 0.8 µM | ALP, variation over the range [2, 13]: ++ (20-30% increase/decrease over the range) | ALT/GPT, variation over the range [2, 13]: ++++ (˃ 40% increase/decrease over the range) | AST/GOT, variation over the range [2, 13]: ++++ (˃ 40% increase/decrease over the range) | CK-MB, variation over the range [2, 13]: = (variation ≤ 10%) | LDH, variation over the range [2, 13]: = (variation ≤ 10%) | Total bilirubin, variation over the range [2, 13]: ++ (20-30% increase/decrease over the range) | Urea, variation over the range [2, 13]: --- (30-40% increase/decrease over the range) | Uric acid, variation over the range [2, 13]: ---- (˃ 40% increase/decrease over the range) | ALP, variation over the range [2, 14]: = (variation ≤ 10%) | ALT/GPT, variation over the range [2, 14]: = (variation ≤ 10%) | AST/GOT, variation over the range [2, 14]: ++++ (˃ 40% increase/decrease over the range) | CK-MB, variation over the range [2, 14]: = (variation ≤ 10%) | LDH, variation over the range [2, 14]: = (variation ≤ 10%) | Total bilirubin, variation over the range [2, 14]: + (10-20% increase/decrease over the range) | Urea, variation over the range [2, 14]: --- (30-40% increase/decrease over the range) | Uric acid, variation over the range [2, 14]: = (variation ≤ 10%) | ALP, variation over the range [2, 15]: ++++ (˃ 40% increase/decrease over the range) | ALT/GPT, variation over the range [2, 15]: ++ (20-30% increase/decrease over the range) | AST/GOT, variation over the range [2, 15]: ++ (20-30% increase/decrease over the range) | CK-MB, variation over the range [2, 15]: -- (20-30% increase/decrease over the range) | LDH, variation over the range [2, 15]: --- (30-40% increase/decrease over the range) | Total bilirubin, variation over the range [2, 15]: +++ (30-40% increase/decrease over the range) | Urea, variation over the range [2, 15]: --- (30-40% increase/decrease over the range) | Uric acid, variation over the range [2, 15]: ---- (˃ 40% increase/decrease over the range) | ALP, variation over the range [2, 16]: ++ (20-30% increase/decrease over the range) | ALT/GPT, variation over the range [2, 16]: = (variation ≤ 10%) | AST/GOT, variation over the range [2, 16]: + (10-20% increase/decrease over the range) | CK-MB, variation over the range [2, 16]: = (variation ≤ 10%) | LDH, variation over the range [2, 16]: -- (20-30% increase/decrease over the range) | Total bilirubin, variation over the range [2, 16]: ++ (20-30% increase/decrease over the range) | Urea, variation over the range [2, 16]: --- (30-40% increase/decrease over the range) | Uric acid, variation over the range [2, 16]: -- (20-30% increase/decrease over the range) | clearance of nested parasites in target organs/tissues (parasite-free organs/tissues, PCR) [3, 17]: 33% | clearance of nested parasites in target organs/tissues (parasite-free organs/tissues, PCR) ([3]; treatment in the chronic infection): 56% | number of amastigotes per Vero cell ([4]; 50 μM, 72 h of exposure): practically zero | IC50 ([4]; Trypanosoma cruzi, amastigotes in Vero cells, 72 h, mean of three ± SD): 8.3 ± 0.7 µM | death or body mass loss of treated mice [5]: none of the mice died or lost more than 10% body mass | parasitaemia reduction on the day of maximum parasitaemia ([6]; oral 20 mg/Kg/day for 5 days from 10th dpi, vs untreated control): ~ 65% | parasitaemia undetectable, days before control mice ([6]; oral 20 mg/Kg/day for 5 days, control detectable up to 50 dpi): 3 days | IC50 [7]: 12.4 ± 1.1 µM | IC50 [8]: 16.6 ± 1.4 µM | Inhibition on mitochondrial membrane potential with respect to untreated epimastigotes [9]: 35.4% | reactivation of parasitaemia after immunosuppression [10, 17]: 75% | reactivation of parasitaemia after immunosuppression ([10]; treatment in the chronic infection (from 75th dpi)): 51% | IC50 [11]: 19.7 ± 1.7 µM | IC50 [12]: 15.1 ± 1.3 µM
